# Experimental data taken from patent US9708368B2, “Linear peptide antibiotics” (priority 2012, dated 2017).
# Square brackets hold non-standard residues; d marks the D form. Peptide text beside a SMILES is read from it. * marks the point of attachment. ξ: configuration not given here. boroAla((+)-pinanediol) = C[C@H](N*)B1O[C@@H]2C[C@@H]3C[C@@H](C3(C)C)[C@]2(C)O1; Biphenylcarbonyl(4'-Bu) = CCCCc1ccc(-c2ccc(C(=O)*)cc2)cc1; X1 = C[C@H](N*)B1OC2C[C@@H]3C[C@@H](C3(C)C)[C@]2(C)O1; Benzoyl(4-(4-Cl-Ph)) = O=C(c1ccc(-c2ccc(Cl)cc2)cc1)*; Benzoyl(2,3-diOH) = O=C(c1cccc(O)c1O)*; Dopa = N[C@@H](Cc1ccc(O)c(O)c1)C(=O)O; X13 = CCCCN1CCC(c2ccc(C(=O)*)cc2)CC1; Thr(3ξ) = CC(O)[C@H](N)C(=O)O; X3 = CCCCCCCCCCCCS(=O)(=O)*; X8 = C[C@H](N*)C(=O)C(N)=O; boroAla = C[C@H](N*)B(O)O; Orn = NCCC[C@H](N)C(=O)O; Dab = NCC[C@H](N)C(=O)O; Abu = CC[C@H](N)C(=O)O; Dap = NC[C@H](N)C(=O)O; Ac3c = NC1(C(=O)O)CC1; ξK = NCCCCC(N)C(=O)O; βAla = NCCC(=O)O
# Tests used:
# [1] = test system: methicillin resistant Staphylococcus aureus (MRSA) strain USA300 (NRS384); details: Method B, 35° C., 22 hours
# Method: In vitro antimicrobial activity of each compound was determined by measuring minimal inhibitor concentrations (MICs) using the broth micro-dilution technique as approved by the Clinical and Laboratory Standards Institute (CLSI). […] Bacterial inocula were prepared by scraping cells into 1 mL of testing media (cation adjusted Mueller Hinton Broth supplemented with 0.002% v/v Tween-80) and diluting to a final OD600 nm of 0.01.
# Test compounds were prepared in DMSO at a concentration of 10 mg/ml. […] Bacterial inocula were added to the two fold serial dilutions of test compounds to a final density of OD OD600 nm of 0.0005 and incubated stationarily at 35° C. for 22 hours, after which the plates were examined visually.
# E. coli SPase = E. coli SPase (Escherichia coli, UniProt P00803); assay: Biochemical SPase activity assay (fluorogenic peptide substrate), E. coli enzyme
# Method: (§1) Reactions were initiated by the addition of substrate to a final concentration of 20 μM. Reaction progress was monitored by measuring the increase in fluorescence signal (excitation at 314 nm, emission at 416 nm) using a SpectraMax M2 fluorescence microplate reader. […] Three-folder serial dilutions of test compounds, starting at 10 μM, were prepared in enzyme mix solution and incubated at room temperature for 10 minutes. Following this incubation, fluorogenic substrate was added to a final concentration of 20 μM and the increase in fluorescence, corresponding to substrate cleavage, was monitored continuously at room temperature for 1 hour. Initial reaction rates were calculated based on the rate of increase in fluorescence during the reaction. Reaction rates were plotted as a function of compound concentration, and IC50 values are determined nonlinear regression analysis (SoftMaxPro 5.4, Molecular Devices™) of the sigmoidal dose-response curve.
# [2] = test system: Escherichia coli strain MC4100 IMP-4213, which harbors an LptD mutation; details: Method B; E. coli MC4100 IMP-4213 (LptD mutation); 35° C., 22 hours
# Method in brief: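 Two-fold serial dilutions of compound inoculated at final OD600 0.0005, incubated static at 35 °C for 22 h, and growth read visually.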
# S. aureus SPase = S. aureus SPase (Staphylococcus aureus, UniProt P0A070); assay: biochemical
# Sequence of S. aureus SPase (P0A070 whole entry): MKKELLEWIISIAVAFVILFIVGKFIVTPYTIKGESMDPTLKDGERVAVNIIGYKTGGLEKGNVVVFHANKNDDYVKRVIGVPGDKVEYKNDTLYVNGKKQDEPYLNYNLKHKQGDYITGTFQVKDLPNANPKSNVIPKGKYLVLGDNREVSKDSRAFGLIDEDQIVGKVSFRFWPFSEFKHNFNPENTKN
# Method: Full length His-tagged S. aureus SPase protein was expressed similarly from E. coli BL21(DE3) containing the plasmid pCDF1-SaSpsB and purified similarly to the E. coli protein with the following exceptions. […] Protein purity was judged to exceed 95% by visual inspection of SDS-PAGE followed by Comassie staining. All protein concentrations were determined by BCA assay.
# as §1
# Sequence of E. coli SPase (P00803 whole entry): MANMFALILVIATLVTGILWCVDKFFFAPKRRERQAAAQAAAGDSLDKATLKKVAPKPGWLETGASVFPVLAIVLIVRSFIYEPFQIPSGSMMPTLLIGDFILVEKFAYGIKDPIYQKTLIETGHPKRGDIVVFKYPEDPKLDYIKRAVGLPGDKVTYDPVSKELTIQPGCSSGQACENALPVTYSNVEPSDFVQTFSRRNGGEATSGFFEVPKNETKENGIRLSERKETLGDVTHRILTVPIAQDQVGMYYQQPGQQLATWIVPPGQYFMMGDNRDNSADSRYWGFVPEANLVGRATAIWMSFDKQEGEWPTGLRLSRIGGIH
Compound,MIC (μg/mL) S. aureus [1] [µg/mL],IC50 (E. coli SPase) [nM],MIC (μg/mL) E. coli [2] [µg/mL],IC50 (S. aureus SPase) [nM]
CCCCc1ccc(-c2ccc(C(=O)N[C@@H](CCCN)C(=O)N[C@H](C(=O)N[C@@H](CC)C(=O)N[C@@H](CCCCN)C(=O)N[C@@H](C)B3OC4C[C@@H]5C[C@@H](C5(C)C)[C@]4(C)O3)C(C)O)cc2)cc1 (stereo partly shown) [Compound 150] ({Biphenylcarbonyl(4'-Bu)}-[Orn][Thr(3ξ)][Abu]K-X1),0.3,6,0.5,270
CCCCc1ccc(-c2ccc(C(=O)N[C@@H](CCCCN)C(=O)N[C@H](C(=O)N[C@@H](C)C(=O)N[C@@H](CCCCN)C(=O)N[C@@H](C)B3OC4C[C@@H]5C[C@@H](C5(C)C)[C@]4(C)O3)[C@@H](C)O)cc2)cc1 (stereo partly shown) [Compound 132] ({Biphenylcarbonyl(4'-Bu)}-KTAK-X1),0.21,24,1,77
CCCCc1ccc(-c2ccc(C(=O)NCCCC[C@H](NC(=O)[C@@H](N)CCN)C(=O)N[C@@H](C)C(=O)N[C@@H](CCCCN)C(=O)N[C@@H](C)B3OC4C[C@@H]5C[C@@H](C5(C)C)[C@]4(C)O3)cc2)cc1 (stereo partly shown) [Compound 278] (H-[Dab]K(Biphenylcarbonyl(4'-Bu))AK-X1),4,800,16,2300
CC(C)C[C@H](NC(=O)[C@H](C)NC(=O)[C@H](CCN)NC(=O)[C@H](CCN)NC(=O)c1ccc(-c2ccc(Cl)cc2)cc1)C(=O)N[C@@H](C)B(O)O [Compound 177] ({Benzoyl(4-(4-Cl-Ph))}-[Dab][Dab]AL-boroAla),2,70,2,640
CCCCN1CCC(c2ccc(C(=O)N[C@@H](CCN)C(=O)N[C@H](C(=O)N[C@@H](C)C(=O)N[C@@H](CCCCN)C(=O)N[C@@H](C)B3O[C@@H]4C[C@@H]5C[C@@H](C5(C)C)[C@]4(C)O3)[C@@H](C)O)cc2)CC1 [Compound 244] (X13-[Dab]TAK-{boroAla((+)-pinanediol)}),45,350,64,1100
C[C@H](NC(=O)[C@H](CCCCN)NC(=O)[C@H](C)NC(=O)[C@H](CCCCN)NC(=O)[C@H](CN)NC(=O)c1ccc(-c2ccc(Cl)cc2)cc1)B1OC2C[C@@H]3C[C@@H](C3(C)C)[C@]2(C)O1 (stereo partly shown) [Compound 168] ({Benzoyl(4-(4-Cl-Ph))}-[Dap]KAK-X1),0.79,5.4,1,250
CCCCc1ccc(-c2ccc(C(=O)N[C@@H](CCCN)C(=O)N[C@H](C(=O)N[C@@H](C)C(=O)N[C@@H](CCCCN)C(=O)N[C@@H](C)B(O)O)C(C)O)cc2)cc1 (stereo partly shown) [Compound 156] ({Biphenylcarbonyl(4'-Bu)}-[Orn][Thr(3ξ)]AK-boroAla),0.31,5.5,0.5,97
CCCCc1ccc(-c2ccc(C(=O)NCCC(=O)N[C@@H](CCCCN)C(=O)N[C@@H](CCCCN)C(=O)N[C@@H](C)C(=O)N[C@@H](CC(C)C)C(=O)N[C@@H](C)B3OC4C[C@@H]5C[C@@H](C5(C)C)[C@]4(C)O3)cc2)cc1 (stereo partly shown) [Compound 218] ({Biphenylcarbonyl(4'-Bu)-βAla}-KKAL-X1),0.5,6.9,1.3,13
CCCCc1ccc(-c2ccc(C(=O)N[C@@H](CCCCN)C(=O)N[C@H](C(=O)N[C@@H](CC)C(=O)N[C@@H](CC(N)=O)C(=O)N[C@@H](C)B3O[C@@H]4C[C@@H]5C[C@@H](C5(C)C)[C@]4(C)O3)[C@@H](C)O)cc2)cc1 [Compound 144] ({Biphenylcarbonyl(4'-Bu)}-KT[Abu]N-{boroAla((+)-pinanediol)}),0.25,18,0.25,36
CCCCc1ccc(-c2ccc(C(=O)N[C@@H](CCN)C(=O)N[C@@H](CCN)C(=O)N[C@@H](C)C(=O)N[C@@H](CC(C)C)C(=O)N[C@@H](C)B(O)O)cc2)cc1 [Compound 179] ({Biphenylcarbonyl(4'-Bu)}-[Dab][Dab]AL-boroAla),2,22,0.5,570
CCCCc1ccc(-c2ccc(C(=O)N[C@@H](CCCCN)C(=O)NC3(C(=O)N[C@@H](C)C(=O)N[C@@H](CCCCN)C(=O)N[C@@H](C)B4OC5C[C@@H]6C[C@@H](C6(C)C)[C@]5(C)O4)CC3)cc2)cc1 (stereo partly shown) [Compound 137] ({Biphenylcarbonyl(4'-Bu)}-K[Ac3c]AK-X1),16,1200,23,26000
CCCCc1ccc(-c2ccc(C(=O)N[C@@H](Cc3c[nH]cn3)C(=O)N[C@H](C(=O)N[C@@H](C)C(=O)N[C@@H](CCCCN)C(=O)N[C@@H](C)B3OC4C[C@@H]5C[C@@H](C5(C)C)[C@]4(C)O3)[C@@H](C)O)cc2)cc1 (stereo partly shown) [Compound 143] ({Biphenylcarbonyl(4'-Bu)}-HTAK-X1),0.35,250,5.7,180
"CCCCc1ccc(-c2ccc(C(=O)N[C@@H](CCN)C(=O)N[C@@H](CCN)C(=O)N[C@@H](C)C(=O)N[C@@H](CCCCNC(=O)c3cccc(O)c3O)C(=O)N[C@@H](C)B3OC4C[C@@H]5C[C@@H](C5(C)C)[C@]4(C)O3)cc2)cc1 (stereo partly shown) [Compound 190] ({Biphenylcarbonyl(4'-Bu)}-[Dab][Dab]AK(Benzoyl(2,3-diOH))-X1)",64,1300,>64,64000
CCCCc1ccc(-c2ccc(C(=O)N[C@@H](CN)C(=O)N[C@@H](CCCCN)C(=O)N[C@@H](C)C(=O)N[C@@H](CCCCN)C(=O)N[C@@H](C)B(O)O)cc2)cc1 [Compound 186] ({Biphenylcarbonyl(4'-Bu)}-[Dap]KAK-boroAla),0.13,6.9,0.13,370
CCCCc1ccc(-c2ccc(C(=O)N[C@@H](CCCCN)C(=O)N[C@@H](CCN)C(=O)N[C@@H](C)C(=O)N[C@@H](CC(C)C)C(=O)N[C@@H](C)B(O)O)cc2)cc1 [Compound 161] ({Biphenylcarbonyl(4'-Bu)}-K[Dab]AL-boroAla),0.63,60,0.71,300
CCCCc1ccc(-c2ccc(C(=O)N[C@@H](CCCCN)C(=O)N[C@H](C(=O)N[C@@H](C)C(=O)N[C@@H](CC(N)=O)C(=O)N[C@@H](C)B3O[C@@H]4C[C@@H]5C[C@@H](C5(C)C)[C@]4(C)O3)[C@@H](C)O)cc2)cc1 [Compound 129] ({Biphenylcarbonyl(4'-Bu)}-KTAN-{boroAla((+)-pinanediol)}),0.74,14,0.91,140
CCCCc1ccc(-c2ccc(C(=O)NC(CCCCN)C(=O)N[C@@H](CCCCN)C(=O)N[C@@H](C)C(=O)N[C@@H](CC(C)C)C(=O)N[C@@H](C)C(=O)C(N)=O)cc2)cc1 (stereo partly shown) [Compound 253] ({Biphenylcarbonyl(4'-Bu)}-[ξK]KAL-X8),8,4800,11,2100
CCCCc1ccc(-c2ccc(C(=O)N[C@@H](CCN)C(=O)N[C@H](C(=O)N[C@@H](C)C(=O)N[C@@H](CCCCN)C(=O)N[C@@H](C)B3OC4C[C@@H]5C[C@@H](C5(C)C)[C@]4(C)O3)[C@@H](C)O)c(C)c2)cc1 (stereo partly shown) [Compound 241],0.25,2.1,0.18,42
CCCCc1ccc(-c2ccc(C(=O)N[C@@H](CCCCN)C(=O)N[C@@H](CCC(=O)OCC)C(=O)N[C@@H](C)C(=O)N[C@@H](CCCCN)C(=O)N[C@@H](C)B3O[C@@H]4C[C@@H]5C[C@@H](C5(C)C)[C@]4(C)O3)cc2)cc1 [Compound 261] ({Biphenylcarbonyl(4'-Bu)}-KE(OEt)AK-{boroAla((+)-pinanediol)}),0.71,41,0.79,280
CCCCc1ccc(-c2ccc(C(=O)N[C@@H](CCN)C(=O)N[C@@H](Cc3ccc(O)c(O)c3)C(=O)N[C@@H](C)C(=O)N[C@@H](CCCCN)C(=O)N[C@@H](C)B3O[C@@H]4C[C@@H]5C[C@@H](C5(C)C)[C@]4(C)O3)cc2)cc1 [Compound 188] ({Biphenylcarbonyl(4'-Bu)}-[Dab][Dopa]AK-{boroAla((+)-pinanediol)}),16,120,8,2900
CCCCc1ccc(-c2ccc(C(=O)N[C@@H](CN)C(=O)N[C@H](C(=O)N[C@@H](C)C(=O)N[C@@H](CCCCN)C(=O)N[C@@H](C)B3O[C@@H]4C[C@@H]5C[C@@H](C5(C)C)[C@]4(C)O3)[C@@H](C)O)cc2)cc1 [Compound 149] ({Biphenylcarbonyl(4'-Bu)}-[Dap]TAK-{boroAla((+)-pinanediol)}),0.28,3.9,0.31,129
CCCCCCCCCCCCS(=O)(=O)N[C@@H](CCCCN)C(=O)N[C@H](C(=O)N[C@@H](C)C(=O)N[C@@H](CCCCN)C(=O)N[C@@H](C)B(O)O)C(C)O (stereo partly shown) [Compound 265] (X3-K[Thr(3ξ)]AK-boroAla),0.13,120,4,17
